According to ChEMBL document CHEMBL1201862, “PubChem BioAssay data set” (2004):
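Assay format: 96-well plates, 48-hour exposure. GI50 = concentration required for 50% inhibition of growth.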 Activity calls are given as the source filed them. No stated cut-off is given here; in the data, active = GI50 up to about 1.1 µM and inactive = higher.

Assays:
Assay in all cases: growth of human tumour cells (NCI), 48 h
NCI-H23 = test system: NCI-H23
SN12C = test system: SN12C
SK-OV-3 = test system: SK-OV-3
LXFL 529 = test system: LXFL 529
NCI-H460 = test system: NCI-H460
OVCAR-4 = test system: OVCAR-4
U-251 = test system: U-251
DMS-114 = test system: DMS-114
HCT-15 = test system: HCT-15
DMS-273 = test system: DMS-273
SNB-78 = test system: SNB-78
786-0 = test system: 786-0
SNB-75 = test system: SNB-75
UO-31 = test system: UO-31
SF-268 = test system: SF-268
Malme-3M = test system: Malme-3M
MOLT-4 = test system: MOLT-4
K562 = test system: K562
SF-295 = test system: SF-295
IGROV-1 = test system: IGROV-1
CAKI-1 = test system: CAKI-1
RPMI-8226 = test system: RPMI-8226
A549 = test system: A549
UACC-257 = test system: UACC-257
DLD-1 = test system: DLD-1
M14 = test system: M14
RXF 393 = test system: RXF 393
HL-60 = test system: HL-60
EKVX = test system: EKVX
OVCAR-5 = test system: OVCAR-5
HT-29 = test system: HT-29
M19-MEL = test system: M19-MEL
ACHN = test system: ACHN
KM-20L2 = test system: KM-20L2
OVCAR-8 = test system: OVCAR-8
HOP-18 = test system: HOP-18
UACC-62 = test system: UACC-62
OVCAR-3 = test system: OVCAR-3
HOP-92 = test system: HOP-92
A498 = test system: A498
HCC 2998 = test system: HCC 2998
KM12 = test system: KM12
XF498 = test system: XF498
SF-539 = test system: SF-539
NCI-H522 = test system: NCI-H522
LOX IMVI = test system: LOX IMVI
RXF 631 = test system: RXF 631
SK-MEL-5 = test system: SK-MEL-5
HOP-62 = test system: HOP-62
SW-620 = test system: SW-620
CCRF-CEM = test system: CCRF-CEM
SK-MEL-2 = test system: SK-MEL-2
COLO 205 = test system: COLO 205
SNB-19 = test system: SNB-19
TK-10 = test system: TK-10
SK-MEL-28 = test system: SK-MEL-28

Which GI50 (NCI-H23) does the source give for `Cc1cc(Cl)ccc1NC(=O)C(=O)Cc1nc2ccccc2o1` here?
The GI50 was > 100 µM (inactive).

What about the GI50 (SN12C) of the same molecule?
Its GI50 is > 100 µM (inactive).

And the GI50 (SK-OV-3)?
Its GI50 is > 100 µM (inactive).

And the GI50 (LXFL 529)?
Its GI50 is > 100 µM (inactive).

What about the GI50 (NCI-H460) of the same molecule?
The GI50 was > 100 µM (inactive).

What about the GI50 (OVCAR-4) of the same molecule?
The GI50 was > 100 µM (inactive).

What about the GI50 (U-251) of the same molecule?
Its GI50 is > 100 µM (inactive).

What about the GI50 (DMS-114) of the same molecule?
The GI50 was > 100 µM (inactive).

And the GI50 (HCT-15)?
The GI50 was over 100 µM.

What about the GI50 (DMS-273) of the same molecule?
The GI50 was > 100 µM (inactive).

And the GI50 (SNB-78)?
The GI50 was > 100 µM (inactive).

And the GI50 (786-0)?
Its GI50 is > 100 µM (inactive).

And the GI50 (SNB-75)?
The GI50 was > 100 µM (inactive).

What about the GI50 (UO-31) of the same molecule?
The GI50 was > 100 µM (inactive).

What about the GI50 (SF-268) of the same molecule?
Its GI50 is > 100 µM (inactive).

What about the GI50 (Malme-3M) of the same molecule?
Its GI50 is > 100 µM (inactive).

And the GI50 (MOLT-4)?
Its GI50 is > 100 µM (inactive).

What about the GI50 (K562) of the same molecule?
The GI50 was > 100 µM (inactive).

What about the GI50 (SF-295) of the same molecule?
Its GI50 is > 100 µM (inactive).

What about the GI50 (IGROV-1) of the same molecule?
Its GI50 is > 100 µM (inactive).

What about the GI50 (CAKI-1) of the same molecule?
Its GI50 is > 100 µM (inactive).

And the GI50 (RPMI-8226)?
Its GI50 is > 100 µM (inactive).

What about the GI50 (A549) of the same molecule?
Its GI50 is > 100 µM (inactive).

What about the GI50 (UACC-257) of the same molecule?
The GI50 was > 100 µM (inactive).

What about the GI50 (DLD-1) of the same molecule?
Its GI50 is > 100 µM (inactive).

What about the GI50 (M14) of the same molecule?
Its GI50 is > 100 µM (inactive).

What about the GI50 (RXF 393) of the same molecule?
The GI50 was > 100 µM (inactive).

What about the GI50 (HL-60) of the same molecule?
The GI50 was > 100 µM (inactive).

And the GI50 (EKVX)?
The GI50 was > 100 µM (inactive).

And the GI50 (OVCAR-5)?
The GI50 was > 100 µM (inactive).

And the GI50 (HT-29)?
The GI50 was > 100 µM (inactive).

And the GI50 (M19-MEL)?
Its GI50 is > 100 µM (inactive).

And the GI50 (ACHN)?
The GI50 was > 100 µM (inactive).

And the GI50 (KM-20L2)?
The GI50 was > 100 µM (inactive).

And the GI50 (OVCAR-8)?
Its GI50 is > 100 µM (inactive).

What about the GI50 (HOP-18) of the same molecule?
Its GI50 is > 100 µM (inactive).

What about the GI50 (UACC-62) of the same molecule?
Its GI50 is > 100 µM (inactive).

What about the GI50 (OVCAR-3) of the same molecule?
Its GI50 is > 100 µM (inactive).

And the GI50 (HOP-92)?
Its GI50 is > 100 µM (inactive).

What about the GI50 (A498) of the same molecule?
The GI50 was > 100 µM (inactive).

What about the GI50 (HCC 2998) of the same molecule?
Its GI50 is > 100 µM (inactive).

And the GI50 (KM12)?
The GI50 was > 100 µM (inactive).

What about the GI50 (XF498) of the same molecule?
The GI50 was > 100 µM (inactive).

And the GI50 (SF-539)?
The GI50 was > 100 µM (inactive).

What about the GI50 (NCI-H522) of the same molecule?
The GI50 was > 100 µM (inactive).

What about the GI50 (LOX IMVI) of the same molecule?
Its GI50 is > 100 µM (inactive).

And the GI50 (RXF 631)?
Its GI50 is > 100 µM (inactive).

What about the GI50 (SK-MEL-5) of the same molecule?
The GI50 was > 100 µM (inactive).

What about the GI50 (HOP-62) of the same molecule?
The GI50 was > 100 µM (inactive).

And the GI50 (SW-620)?
The GI50 was > 100 µM (inactive).

What about the GI50 (CCRF-CEM) of the same molecule?
The GI50 was > 100 µM (inactive).

And the GI50 (SK-MEL-2)?
The GI50 was > 100 µM (inactive).

And the GI50 (COLO 205)?
Its GI50 is > 100 µM (inactive).

What about the GI50 (SNB-19) of the same molecule?
Its GI50 is > 100 µM (inactive).

What about the GI50 (TK-10) of the same molecule?
The GI50 was > 100 µM (inactive).

What about the GI50 (SK-MEL-28) of the same molecule?
The GI50 was > 100 µM (inactive).
